Read-outs that look alike come from different tables or passages of the source. Each block holds one molecule with its values, some of them ahead of it.
Key:
[1] = design: method as in earlier work; settings: non-halogenated standard, in toluene; cited from earlier work
[2] = reference compound, in ethanol; cited from earlier work
[3] = Photodegradation (photostability) under xenon lamp irradiation; assay type: physicochemical; settings: same irradiation conditions as in the biological studies
Procedure: The photostability of porphyrins was investigated following the measurement of their optical absorption in aqueous solutions. Continuous irradiation of an aerated solution were carried out using the xenon lamp (XBO-150) through the 10 cm water filter and bandpass filter transmitting within >400 nm range, delivering 75 mW/cm^2. The reaction progress was monitored by UV/Vis spectroscopy using a Hewlett Packard HP8453 spectrophotometer.

[4] = system: P. aeruginosa (ATCC19660); test: Photodynamic inactivation of microorganisms, CFU; assay type: cell-based; settings: PDI 10 J/cm^2, 420±20 nm, concentration not given
Procedure: (§1) The microorganisms used in PDI were: S. aureus (8325–4), E. faecalis (ATCC29212), E. coli (K12), P. aeruginosa (ATCC19660), S. marcescens (ATCC14756) and C. albicans (DAY286). The planctonic bacteria cells were cultured in brain heart infusion broth (Sigma-Aldrich) and LB Broth/Lennox (BioShop Lab Science Products) in an orbital incubator (37°C, 130 rpm), until the optical density reached 0.5, which corresponds to approximately 10^7 CFU per mL. The fungal yeasts were cultured in YPD Broth (BioShop) with overnight aeration at 30°C to reach ca. 10^6 CFU/mL. For PDI experiments cell suspensions of bacteria or fungal yeasts were incubated with various concentrations of the porphyrins at pH 7.4 (PBS) for 1 h in the dark at room temperature. Aliquots (1 mL) were transferred to a 12-well plate and illuminated with a blue light. We used blue-LED array (420±20 nm) to deliver a light dose of 10 J/cm^2 (measured with a power meter). Cells treated with photosensitizers in the dark were incubated covered with aluminum foil for the same time as the PDI groups (1 h). After illumination (or dark incubation) samples were shaken, diluted in PBS, mixed and plated (LB agar). Aliquots were taken from each well to determine the CFU value. Plates were streaked in triplicate and incubated for 12–36 h at 30 °C (for fungal yeasts) or 37 °C (for bacteria) in the dark to allow colony formation.

[5] = Singlet oxygen quantum yield by phosphorescence at 1270 nm; assay type: physicochemical; settings: EtOH, phenalenone as reference
Procedure: (§2) Fluorescence emission spectra were recorded from 550 nm to 750 nm with excitation at Soret band (λ≈420 nm). The excitation and emission slits were both set to 8 nm and scanning speed to 50 nm/min. Fluorescence spectra were recorded with a Perkin Elmer Fluorescence Spectrometer LS 55. Determination of fluorescence quantum yields: ΦF of studied photosensitizers was determined using the comparative method according to the equation: ΦF=ΦFStd⋅FAStdn^2/FStdAnStd2, (1) where F and FStd are the areas under the fluorescence emission curves of the sample and the standard, A and AStd are the absorbance of the sample and the standard and n are the refractive indices of the solvent used for the sample and the standard, respectively. Commercially available tetraphenylporphyrin TPP (Std) (ΦF = 0.10 in toluene) was employed as the standard. The absorbance of the solutions at the excitation wavelength was in the range of 0.02. Singlet oxygen quantum yields were determined based on the relative phosphorescence emissions of singlet oxygen generated by a reference and by each one of the porphyrins, using a method described elsewhere. Briefly, a modified Applied Photophysics LKS.60 flash photolysis spectrometer with a Hamamatsu NIR photomultiplier for detection and HP Infinium (500 MHz, 1GSas^-1) or Tektronix DPO 7254 (2.5 GHz, 40GSas^-1) oscilloscopes were used. The adaptation of this spectrometer allowed for the detection of singlet oxygen phosphorescence at room temperature. This emission was detected using a Hamamatsu R5509–42 photomultiplier, cooled to 193 K in a liquid nitrogen chamber. […] The modification of the spectrometer for time-resolved singlet oxygen phosphorescence measurements involved the interposition of a Melles Griot cold mirror (03MCS005), which reflects more than 99% of the incident light in the 400–700 nm range, and of a Scotch RG665 filter. A 600 line diffraction grating was mounted in place of a standard one. […] Solutions of photosensitizers were prepared with matched absorbances close to 0.2 at 355 nm. […]

[6] = target: HSA (Homo sapiens, UniProt P02768); test: Binding to HSA by fluorescence quenching (Stern-Volmer, Scatchard); settings: for KSV (Stern-Volmer constant), HSA: HSA fluorescence quenching, PBS, room temperature; for n (number of binding sites), HSA: Scatchard analysis
Procedure: The binding of the PS to HSA was studied by spectrofluorometry at room temperature. An aqueous (phosphate buffer saline, PBS) solution of HSA was titrated with varying concentrations of the respective porphyrin solutions. HSA was excited at 295 nm and fluorescence was recorded between 300 nm and 400 nm. The systematic lowering of HSA fluorescence with increasing photosensitizer concentrations was noted and used in the determination of the binding constants and the number of binding sites on HSA according to Scatchard equation. The changes in HSA fluorescence intensity were related to porphyrin concentrations by the Stern-Volmer relationship. The binding constant (Kb) of PS to lipoproteins was also determined using the spectroscopic titration method. The sets of steady-state emission spectra of PBS solutions with different concentrations of HDL and LDL, to which the porphyrin (5 μM) was added were measured. The fluorescence intensity of the dye increased upon its partitioning into the lipoproteins. To obtain Kb, F versus [L] data were plotted and fitted to by a nonlinear regression routine.

[7] = Fluorescence emission and fluorescence quantum yield (comparative method); assay type: physicochemical; settings: EtOH, TPP as standard
Procedure: as §2

[8] = n-Octanol/PBS partition coefficient, shake-flask; assay type: physicochemical; settings: modified shake-flask
Procedure: The n-octanol/PBS partition coefficients were measured following shake-flask method with minor modifications. The photosensitizers were dissolved in n-octanol previously saturated with a solution of PBS. The same volume of PBS saturated with n-octanol was added and mixed on a vortex device and then the phases were separated by centrifugation. Next, the PBS/n-octanol phase was taken and diluted to obtain 0.5% of PBS/n-octanol content in the final solution. This solution was left into the ultrasonic bath. The fluorescence of each solution was measured using Fluorescence Spectrometer LS 55 (Perkin Elmer) and compared with calibration curve to obtain the concentration of the photosensitizer. Partition coefficients were calculated from the ratio coct/cPBS, where coct and cPBS are the concentrations of the porphyrin derivatives in the n-octanol and in the PBS.

[9] = UV/Vis absorption spectra, molar absorption coefficients; assay type: physicochemical; settings: EtOH; for Absorption λmax, B(0,0): Soret band
Procedure: All commercial chemicals and reagents were of analytical grade and were purchased from Sigma-Aldrich. UV/Vis absorption spectra were recorded in a Hewlett Packard HP8453 spectrophotometer. Solutions containing samples of photosensitizers were dissolved in the selected solvent in quartz cuvettes. Using measured absorbance for various concentrations of porphyrin in ethanol, the molar absorption coefficients were determined from Beer’s law.

[10] = system: E. coli (K12); test: Photodynamic inactivation of microorganisms, CFU; assay type: cell-based; settings: PDI 10 J/cm^2, 420±20 nm, concentration not given
Procedure: as §1

HSA, sequence (P02768 25-609): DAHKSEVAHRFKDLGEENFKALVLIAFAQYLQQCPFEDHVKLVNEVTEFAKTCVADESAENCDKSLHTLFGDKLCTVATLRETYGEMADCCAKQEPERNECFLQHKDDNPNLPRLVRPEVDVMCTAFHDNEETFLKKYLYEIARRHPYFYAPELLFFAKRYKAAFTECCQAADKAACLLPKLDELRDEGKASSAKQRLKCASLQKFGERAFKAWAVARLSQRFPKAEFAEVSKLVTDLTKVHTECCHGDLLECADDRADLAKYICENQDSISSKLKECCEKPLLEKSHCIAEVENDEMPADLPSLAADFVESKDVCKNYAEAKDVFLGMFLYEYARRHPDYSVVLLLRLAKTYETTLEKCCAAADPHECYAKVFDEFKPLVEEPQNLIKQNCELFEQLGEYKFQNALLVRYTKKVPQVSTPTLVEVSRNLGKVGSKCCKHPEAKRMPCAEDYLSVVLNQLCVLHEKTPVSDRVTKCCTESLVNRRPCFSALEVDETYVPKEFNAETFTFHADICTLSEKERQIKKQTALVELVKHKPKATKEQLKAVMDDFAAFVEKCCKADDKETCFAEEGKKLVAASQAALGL

Structure (SMILES): C1=Cc2nc1c(-c1ccccc1)c1nc(c(-c3ccccc3)c3ccc([nH]3)c(-c3ccccc3)c3ccc([nH]3)c2-c2ccccc2)C=C1 [TPP, tetraphenylporphyrin]
Fluorescence quantum yield ΦF [1]: 0.10

Structure (SMILES): O=C1C=Cc2cccc3cccc1c23 [phenalenone]
Singlet oxygen quantum yield ΦΔ [2]: 0.95 ± 0.02

Photostability (Soret band absorbance during irradiation) [3]: more prone to photooxidation
Structure (SMILES): C=CC1=C(C)c2cc3[nH]c(cc4nc(cc5[nH]c(cc1n2)c(C)c5CCC(=O)O)C(CCC(=O)O)=C4C)c(C)c3C=C [PpIX]

Structure (SMILES): CCNS(=O)(=O)c1ccc(Cl)c(-c2c3nc(c(-c4c(Cl)ccc(S(=O)(=O)NCC)c4Cl)c4ccc([nH]4)c(-c4c(Cl)ccc(S(=O)(=O)NCC)c4Cl)c4nc(c(-c5c(Cl)ccc(S(=O)(=O)NCC)c5Cl)c5ccc2[nH]5)C=C4)C=C3)c1Cl [Cl2PEt, 5,10,15,20-tetrakis(2,6-dichloro-3-N-ethylsulfamoylphenyl)porphyrin]
Decrease in survival / bacteria CFU killing [4]: up to 3 logs | Singlet oxygen quantum yield ΦΔ [5]: 0.85 | KSV (Stern-Volmer constant), HSA [6]: 6.62 10^5M^-1 | n (number of binding sites), HSA [6]: 1 | Fluorescence quantum yield ΦF [7]: 0.017 | logP [8]: 1.84 | Absorption λmax, Qx (0,1) [9]: 592 nm | Absorption λmax, Qx(0,0) [9]: 646 nm | Absorption λmax, Qy (0,0) [9]: 546 nm | Absorption λmax, Qy (0,1) [9]: 514 nm | Absorption λmax, B(0,0) [9]: 418 nm

Structure (SMILES): O=S(=O)(O)c1ccc(Cl)c(-c2c3nc(c(-c4c(Cl)ccc(S(=O)(=O)O)c4Cl)c4ccc([nH]4)c(-c4c(Cl)ccc(S(=O)(=O)O)c4Cl)c4nc(c(-c5c(Cl)ccc(S(=O)(=O)O)c5Cl)c5ccc2[nH]5)C=C4)C=C3)c1Cl [Cl2POH, 5,10,15,20-tetrakis(2,6-dichloro-3-sulfophenyl)porphyrin]
Decrease in survival [10]: 1.5–2 logs | Decrease in survival / bacteria CFU killing [4]: 1.5–2 logs | Singlet oxygen quantum yield ΦΔ [5]: 0.98 | KSV (Stern-Volmer constant), HSA [6]: 4.66 10^5M^-1 | n (number of binding sites), HSA [6]: 1 | Fluorescence quantum yield ΦF [7]: 0.015 | logP [8]: -1.8 | Absorption λmax, Qx (0,1) [9]: 592 nm | Absorption λmax, Qx(0,0) [9]: 646 nm | Absorption λmax, Qy (0,0) [9]: 546 nm | Absorption λmax, Qy (0,1) [9]: 514 nm | Absorption λmax, B(0,0) [9]: 420 nm
